The assay has as its system E. coli ATCC25922. The assay is described as follows: Antibacterial activity in combination with minocycline (growth inhibition). Conditions: Escherichia coli, minocycline 0.25 μg/mL, OD625 23 h minus 1 h, read-out: residual growth of E. coli ATCC25922 (% of uninhibited control) with minocycline; for activity at 25 µM: ATCC25922, compound at 25 μM; for activity at 50 µM: ATCC25922, compound at 50 μM. Format: cell-based. The method, then: Antibacterial activity in combination with minocycline or with linezolid
Inhibition of growth was measured with E. coli ATCC25922 and P. aeruginosa PAO1 in a 96-well plate format. Cation-adjusted Müller-Hinton broth (caMHB) was inoculated with an overnight culture and incubated at 37° C. on a shaker until OD625 reached 0.6 to 0.7. Density was adjusted to OD600=0.5 by addition of caMHB. 35 μL of the suspension were diluted to 35 mL with caMHB and supplemented with minocycline at the subinhibitory doses of 0.25 μg/mL for E. coli and 8 μg/mL for P. aeruginosa or with linezolid at the subinhibitory dose of 128 μg/mL for E. coli and P. aeruginosa. Each well contained 1 μL of test compound in 100 μL caMHB with minocycline or with linezolid.
Plates were incubated at 37° C. on a plate shaker. OD625 was measured at 1 h, 6 h, and at 23 h.
The difference between OD at 23 h and at 1 h was taken as measure for cell density and compared to controls without inhibitor (i.e. uninhibited control). Results were expressed as residual growth (% of uninhibited control). Enhancement of minocycline or linezolid activity caused reduced residual growth.

Regarding `O=[N+]([O-])c1ccc(CNCC2CCNC2)cc1OCc1ccc(Cl)cc1Br` (centres unmarked) [Example 148], the activity at 25 µM was at most 10%.

`Clc1ccc(-c2ccccc2CNCC2CCNC2)c(Br)c1` (centres unmarked) [Example 69]: the activity at 50 µM is at most 50%. In the case of `Clc1ccc(C=CCc2cccc(CNCC3CCNC3)c2)c(Br)c1` (centres unmarked) [Example 169], the activity at 25 µM is at most 10%.

Turning to `C=CCOc1cc(/C=C/c2ccccn2)cc(CNCC2CNC2)c1` [Example 336], the activity at 25 µM is at most 10%.

With `Clc1cc(/C=C/c2ccc(Cl)cc2Br)cc(OCCCNCC2CCNC2)c1` (centres unmarked) [Example 189], the activity at 25 µM was at most 10%.

For the compound `NCC1CCC(CNCc2cc(Cl)cc(OCc3ccc(Cl)cc3Br)c2)N1` (centres unmarked) [Example 193], the activity at 25 µM is at most 10%. On the same count and under the same terms, with `C=CCOc1cc(/C=C/c2ccc(C(N)=O)cc2)cc(CNCC2CNC2)c1` [Example 339] the figure was at most 10%; with `CC(C)COc1cc(CNCC2CCNC2)cc(OCc2ccc(F)nc2F)c1` (centres unmarked) [Example 283], at most 10%; with `Brc1ccccc1COc1ccc(CNCC2CCNCC2)cc1` [Example 72], at most 10%.

For `Clc1ccc(/C=C\c2cc(CNCC3CCNC3)cc(OCCc3c[nH]cn3)c2)c(Br)c1` (centres unmarked) [Example 259], the activity at 25 µM was at most 10%. `Clc1ccc(/C=C/c2cc(CNCC3CCNC3)cc(OCCN3CCOCC3)c2)c(Br)c1` (centres unmarked) [Example 246]: the activity at 25 µM is at most 10%.

Take `CC(C)(C)c1ccc(COc2cccc(CNCC3CCNC3)c2)cc1` (centres unmarked) [Example 216]: the activity at 25 µM is at most 10%.

`Clc1ccc(COc2cc(CNCC3CCNC3)cc(OCCN3CCOCC3)c2)c(Br)c1` (centres unmarked) [Example 238]: the activity at 25 µM is at most 10%. In the case of `O=C(NCCNCC1CNC1)c1cc(/C=C/c2ccc(Cl)cc2Br)cc(OCCc2ccncc2)c1` [Example 518], the activity at 25 µM is at most 10%. Same read-out and setting: the same measure for `Clc1ccc(/C=C/c2cc(CNCC3CCNC3)cc(OCCc3ccccn3)c2)c(Br)c1` (centres unmarked) [Example 341]: at most 10%. Same read-out and setting: the same measure for `Clc1ccc(COc2cccc(CNCC3CNC3)c2)c(Br)c1` [Example 18]: at most 10%. The same measure, in the same setting: with `C=CCOc1cc(/C=C/c2cccc(C(N)=O)c2)cc(CNCC2CNC2)c1` [Example 340] the figure was at most 10%.

For the compound `CC(C)COc1ccc(OCc2ccc(Cl)cc2Br)cc1CNCC1CNC1` [Example 422], the activity at 25 µM is at most 10%. Same read-out and setting: the same measure for `Clc1ccc(/C=C/c2cccc(CCNCC3CCNC3)c2)c(Br)c1` (centres unmarked) [Example 164]: at most 10%.

With `[O-][S+](Cc1ccc(Cl)cc1Br)c1cccc(CNCC2CCNC2)c1` (centres unmarked) [Example 137, 1-[3-[(2-bromo-4-chloro-phenyl)methylsulfinyl]phenyl]-N-(pyrrolidin-3-ylmethyl)methanamine], the activity at 50 µM is at most 50%. In the case of `O=c1[nH]nc(CCOc2cc(/C=C/c3ccc(Cl)cc3Br)cc(CNCC3CCNC3)c2)o1` (centres unmarked) [Example 429], the activity at 25 µM is at most 10%.

For `C=CCOc1ccc(OCCNCC2CCNC2)c(/C=C/c2ccc(Cl)cc2Br)c1` (centres unmarked) [Example 211], the activity at 25 µM is at most 10%. `C=CCOc1cc(/C=C/c2ccc(C#N)nc2)cc(CNCC2CCNC2)c1` (centres unmarked) [Example 326]: the activity at 25 µM is at most 10%.

Regarding `Clc1ccc(C#Cc2cccc(CNCC3CCNC3)c2)c(Br)c1` (centres unmarked) [Example 150], the activity at 25 µM was at most 10%. As for `Clc1cc(/C=C/c2ccc(Cl)cc2Br)cc(CNCC2CCNC2)c1` (centres unmarked) [Example 157], the activity at 25 µM was at most 10%. Still for that read-out and setting: the same measure for `C[N+](C)(Cc1cc(/C=C/c2ccc(Cl)cc2Br)cc(OCCc2c[nH]cn2)c1)CC1CCNC1` (centres unmarked) [Example 398]: at most 10%; for `Clc1ccc(/C=C\c2cc(CNCC3CNC3)cc(OCCN3CCOCC3)c2)c(Br)c1` [Example 242]: at most 10%. Same read-out and setting: the same measure for `CC(C)COc1cc(/C=C/c2cncc(C#N)c2)cc(C[N+](C)(C)CC2CCNC2)c1` (centres unmarked) [Example 460]: at most 10%; for `Brc1ccccc1COc1ccc(CNCC2CCNC2)cc1` (centres unmarked) [Example 80]: at most 10%; for `CC(C)COc1cc(/C=C/c2ccccn2)cc(CNCC2CCNC2)c1` (centres unmarked) [Example 333]: at most 10%. The same measure, in the same setting: with `Clc1ccc(COc2ccc(CNCC3CNC3)cc2)cc1Cl` [Example 66] the figure was at most 10%; with `Clc1ccc(/C=C/c2cccc(OCCCNCC3CCNC3)c2)c(Br)c1` (centres unmarked) [Example 202], at most 10%; with `Cn1cnc(COc2cc(/C=C/c3ccc(Cl)cc3Br)cc(CNCC3CCNC3)c2)c1` (centres unmarked) [Example 345], at most 10%. With `C=CCOc1cc(CNCC2CCNC2)cc(OCCc2ccccn2)c1` (centres unmarked) [Example 410], the activity at 50 µM was at most 50%. Consider `CC(C)Oc1cc(CNCC2CCNC2)cc(OCc2ccc(Cl)cc2Br)c1` (centres unmarked) [Example 163], for which the activity at 25 µM is at most 10%. Same read-out and setting: with `CC(C)COc1ccc(/C=C/c2ccc(Br)cc2Cl)cc1CNCC1CNC1` [Example 401] the figure was at most 10%. Turning to `Clc1ccc(COc2cccc(CCCNCC3CCNC3)c2)c(Br)c1` (centres unmarked) [Example 112], the activity at 25 µM was at most 10%.

For `Cc1noc(C)c1CCOc1cc(/C=C/c2ccc(Cl)cc2Br)cc(CNCC2CCNC2)c1` (centres unmarked) [Example 430], the activity at 25 µM is at most 10%. For `C=CCOc1cc(CNCC2CCNC2)cc(OCc2cccnc2)c1` (centres unmarked) [Example 417], the activity at 50 µM was at most 50%. Regarding `CC(C)(C)c1ccc(S(=O)(=O)Nc2ccc(CNCC3CCNC3)cc2OCCc2c[nH]cn2)cc1` (centres unmarked) [Example 399, 4-tert-butyl-N-[2-[2-(1H-imidazol-4-yl)ethoxy]-4-[(pyrrolidin-3-ylmethylamino)methyl]phenyl]benzenesulfonamide], the activity at 25 µM was at most 10%. Same read-out and setting: with `C=CCOc1cc(CNCC2CCNC2)cc(CSc2ccc(Cl)cc2Br)c1` (centres unmarked) [Example 194] the figure was at most 10%. With `CC(C)COc1cc(CNCC2CCNC2)cc(NC(=O)c2cccnc2)c1` (centres unmarked) [Example 485, N-[3-isobutoxy-5-[(pyrrolidin-3-ylmethylamino)methyl]phenyl]pyridine-3-carboxamide], the activity at 50 µM was at most 50%.

As to `C(=C\c1cc(CNCC2CNC2)cc(OCCc2ccncc2)c1)/c1cccnc1` [Example 438], the activity at 50 µM was at most 50%. On to `C=CCOc1cc(CNCC2CNC2)cc(OCc2ccc(C(C)(C)C)cc2)c1` [Example 296], for which the activity at 25 µM is at most 10%. With `Clc1ccc(Oc2ccc(CNCC3CNC3)cc2)c(Br)c1` [Example 81], the activity at 25 µM was at most 10%. The same measure, in the same setting: with `C=CCOc1cc(/C=C/c2ccc(Cl)cc2Br)cc(C[N+](C)(C)CC2CCNC2)c1` (centres unmarked) [Example 396] the figure was at most 10%. The same measure, in the same setting: the same measure for `C=CCOc1cc(CNCC2CCNC2)cc(CNC(=O)c2ccc(C(C)(C)C)cc2)c1` (centres unmarked) [Example 357]: at most 10%; for `C=CCOc1ccc(/C=C/c2ccc(Cl)cc2Br)cc1CNCC1CNC1` [Example 421]: at most 10%. The same measure, in the same setting: the same measure for `C=CCOc1cc(CCc2ccc(OC)cc2OC)cc(CNCC2CNC2)c1` [Example 322]: at most 10%; for `CC(C)(c1ccccc1)c1ccc(OCCCNCC2CCNCC2)cc1` [Example 31]: at most 10%; for `Clc1ccc(Oc2cccc(CNCC3CCNC3)c2)c(Br)c1` (centres unmarked) [Example 88, 1-[3-(2-bromo-4-chloro-phenoxy)phenyl]-N-(pyrrolidin-3-ylmethyl)methanamine]: at most 10%. With `CC(C)(c1ccccc1)c1ccc(OCCCNCC2CCNC2)cc1` (centres unmarked) [Example 32], the activity at 25 µM was at most 10%.

Consider `Clc1ccc(COc2cccc(CNCC3CCNC3)c2)c(Cl)c1` (centres unmarked) [Example 176], for which the activity at 25 µM was at most 10%.

For `Clc1ccc(/C=C\c2cc(CNCC3CCNC3)cc(OCCc3ccncc3)c2)c(Br)c1` (centres unmarked) [Example 253], the activity at 25 µM is at most 10%. On the same count and under the same terms, with `C=CCOc1cc(/C=C/c2ccc(Cl)cc2Br)cc(CN(CC2CNC2)CC2CNC2)c1` [Example 448] the figure was at most 10%; with `Clc1ccc(COc2cccc(CCNCC3CCNC3)c2)c(Br)c1` (centres unmarked) [Example 122], at most 10%. Still for that read-out and setting: the same measure for `CC(C)COc1cc(/C=C/c2ccccc2C(N)=O)cc(CNCC2CCNC2)c1` (centres unmarked) [Example 375]: at most 10%. Same read-out and setting: with `FC(F)(F)c1cc(CNCC2CNC2)cc(OCc2ccc(Cl)cc2Br)c1` [Example 104] the figure was at most 10%; with `Clc1ccc(/C=C\c2cc(CNCC3CNC3)cc(OCCc3ccncc3)c2)c(Br)c1` [Example 257], at most 10%; with `CC(C)(C)c1ccc(/C=C/c2cccc(CNC3CCNCC3)c2)cc1` [Example 240], at most 10%.

With `FC(F)(F)c1cc(Cl)ccc1COc1cccc(CNCC2CCNC2)c1` (centres unmarked) [Example 132], the activity at 25 µM is at most 10%. `Clc1ccc(COc2ccc(CCCNCC3CNC3)cc2)c(Br)c1` [Example 116]: the activity at 25 µM was at most 10%.

For `C=CCOc1cc(CNCC2CNC2)cc(OCc2ccc(Cl)cc2Br)c1` [Example 106], the activity at 25 µM is at most 10%. Turning to `Clc1ccc(/C=C/c2cc(CNCC3CNC3)cc(OCCN3CCOCC3)c2)c(Br)c1` [Example 243], the activity at 25 µM is at most 10%. As for `Clc1ccc(COc2cc(CNCC3CNC3)cc(OCCc3c[nH]cn3)c2)c(Br)c1` [Example 252], the activity at 25 µM is at most 10%.
